≈ marks a conversion by molar mass, not a printed value.
Legend:
[1] = Cytotoxicity against human NCM460 cells assessed as inhibition rate of cell growth at 100 uM incubated for 24 hrs by CCK8 assay relative to control; assay type: toxicity, cell-based
Staphylococcus aureus [2] = assay: Antibacterial activity against Staphylococcus aureus USA 300 incubated for 24 hrs by CLSI based broth microdilution assay; assay type: functional
Dihydrofolate reductase = Dihydrofolate reductase (Staphylococcus aureus, UniProt P0A017); assay: Inhibition of Staphylococcus aureus DHFR expressed in Escherichia coli BL21 (DE3) using DHF as substrate preincubated for 10 mins followed by substrate addition measured for 10 mins in presence of NADPH by spectrophotometry
Chain of Dihydrofolate reductase (P0A017 whole entry): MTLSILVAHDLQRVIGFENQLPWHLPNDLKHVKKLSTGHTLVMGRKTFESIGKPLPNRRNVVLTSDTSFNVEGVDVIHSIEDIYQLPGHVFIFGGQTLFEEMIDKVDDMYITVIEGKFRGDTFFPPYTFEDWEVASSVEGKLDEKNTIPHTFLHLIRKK

Staphylococcus aureus [3] = assay: Antibacterial activity against TMP-resistant Staphylococcus aureus BHKS 721 incubated for 24 hrs by CLSI based broth microdilution assay; assay type: functional
Staphylococcus aureus [4] = assay: Antibacterial activity against Staphylococcus aureus ATCC 25923 incubated for 24 hrs by CLSI based broth microdilution assay; assay type: functional
Staphylococcus aureus [5] = assay: Antibacterial activity against TMP-resistant Staphylococcus aureus BHKS 723 incubated for 24 hrs by CLSI based broth microdilution assay; assay type: functional
Staphylococcus aureus [6] = assay: Antibacterial activity against TMP-resistant Staphylococcus aureus BHKS 227 incubated for 24 hrs by CLSI based broth microdilution assay; assay type: functional
[7] = Cytotoxicity against HEK293 cells assessed as inhibition rate of cell growth at 100 uM incubated for 24 hrs by CCK8 assay relative to control; assay type: toxicity, cell-based; conditions: human
[8] = test system: Dihydrofolate reductase (Staphylococcus aureus); conditions: dose 100.0 nM

Compound	inhibition at 24 h, 100 µM [1] [%]	MIC (Staphylococcus aureus [2]) [µg/mL]	IC50 (Dihydrofolate reductase) [nM]	MIC (Staphylococcus aureus [3]) [µg/mL]	MIC (Staphylococcus aureus [4]) [µg/mL]	MIC (Staphylococcus aureus [5]) [µg/mL]	MIC (Staphylococcus aureus [6]) [µg/mL]	inhibition at 24 h, 100 µM [7] [%]	inhibition [8] [%]
COc1cc(C(C)C)c(Oc2cnc(N)nc2N)cc1-c1cc(F)cc(F)c1	52.1	0.5 (≈ 1.29 µM)	41.8	32 (≈ 82.8 µM)	1 (≈ 2.59 µM)	32 (≈ 82.8 µM)	4 (≈ 10.4 µM)	45.2	> 100
COc1cc(C(C)C)c(Oc2cnc(N)nc2N)cc1-c1cccc(C(F)(F)F)c1	74.6	1 (≈ 2.39 µM)	239	16 (≈ 38.2 µM)	1 (≈ 2.39 µM)	16 (≈ 38.2 µM)	4 (≈ 9.56 µM)	51.5	82.9
CC(C)c1cc(OCC2CCC2)c(I)cc1Oc1cnc(N)nc1N	13.2	0.125 (≈ 0.275 µM)	7.69	4 (≈ 8.8 µM)	0.125 (≈ 0.275 µM)	4 (≈ 8.8 µM)	1 (≈ 2.2 µM)	57.9	61.3
CC(C)c1cc(OCC2CCCC2)c(I)cc1Oc1cnc(N)nc1N	35.2	0.125 (≈ 0.267 µM)	10.2	8 (≈ 17.1 µM)	0.125 (≈ 0.267 µM)	4 (≈ 8.54 µM)	2 (≈ 4.27 µM)	64	76.4
COc1cc(C(C)C)c(Oc2cnc(N)nc2N)cc1-c1ccc(C(=O)O)cc1	6.53	0.063 (≈ 0.16 µM)	4.44	2 (≈ 5.07 µM)	0.063 (≈ 0.16 µM)	2 (≈ 5.07 µM)	< 0.25	29.9	45.1
COc1cc(C(C)C)c(Oc2cnc(N)nc2N)cc1-c1ccc2ccccc2c1	67.6	0.25 (≈ 0.624 µM)	148	> 32	0.5 (≈ 1.25 µM)	> 32	1 (≈ 2.5 µM)	13.5	80.8
CCCCCOc1cc(C(C)C)c(Oc2cnc(N)nc2N)cc1I	41.5	0.125 (≈ 0.274 µM)	8.36	4 (≈ 8.77 µM)	0.125 (≈ 0.274 µM)	4 (≈ 8.77 µM)	2 (≈ 4.38 µM)	64.9	45.8
COc1cc(C(C)C)c(Oc2cnc(N)nc2N)cc1-c1ccc(C(C)(C)C)cc1	65.6	0.5 (≈ 1.23 µM)	37.9	4 (≈ 9.84 µM)	0.5 (≈ 1.23 µM)	4 (≈ 9.84 µM)	4 (≈ 9.84 µM)	20.7	54.3
COc1ccc(Oc2cnc(N)nc2N)cc1-c1ccc(OC(F)(F)F)cc1	69.9	0.002 (≈ 0.0051 µM)	15.9	4 (≈ 10.2 µM)	0.002 (≈ 0.0051 µM)	4 (≈ 10.2 µM)	2 (≈ 5.1 µM)	39.4	51.1
CCCCOc1cc(C(C)C)c(Oc2cnc(N)nc2N)cc1I	72.9	0.125 (≈ 0.283 µM)	36.7	4 (≈ 9.04 µM)	0.125 (≈ 0.283 µM)	8 (≈ 18.1 µM)	1 (≈ 2.26 µM)	42.2	50.8
COc1cc(C(C)C)c(Oc2cnc(N)nc2N)cc1-c1ccc(F)cc1	60.3	0.25 (≈ 0.679 µM)	69.5	16 (≈ 43.4 µM)	0.25 (≈ 0.679 µM)	16 (≈ 43.4 µM)	1 (≈ 2.71 µM)	46.9	27.2
COc1cc(C(C)C)c(Oc2cnc(N)nc2N)cc1-c1ccc(OC(F)(F)F)cc1	63.6	0.25 (≈ 0.575 µM)	19.1	8 (≈ 18.4 µM)	0.25 (≈ 0.575 µM)	8 (≈ 18.4 µM)	1 (≈ 2.3 µM)	43.5	> 100
COc1cc(C(C)C)c(Oc2cnc(N)nc2N)cc1-c1ccc(Cl)cc1	69.1	0.25 (≈ 0.65 µM)	66.6	16 (≈ 41.6 µM)	0.25 (≈ 0.65 µM)	16 (≈ 41.6 µM)	1 (≈ 2.6 µM)	16.4	94.3
COc1cc(C(C)C)c(Oc2cnc(N)nc2N)cc1C1CC1	4.06	0.5 (≈ 1.59 µM)	27.8	16 (≈ 50.9 µM)	1 (≈ 3.18 µM)	32 (≈ 102 µM)	4 (≈ 12.7 µM)	0.06	35.3
COc1cc(C(C)C)c(Oc2cnc(N)nc2N)cc1CC(C)C	67.4	0.5 (≈ 1.51 µM)	24.2	16 (≈ 48.4 µM)	0.5 (≈ 1.51 µM)	16 (≈ 48.4 µM)	4 (≈ 12.1 µM)	57.8	> 100
COc1cc(C(C)C)c(Oc2cnc(N)nc2N)cc1-c1ccc(C)cc1	55.5	0.5 (≈ 1.37 µM)	38.7	16 (≈ 43.9 µM)	0.5 (≈ 1.37 µM)	16 (≈ 43.9 µM)	2 (≈ 5.49 µM)	2.04	9.88
COc1cc(C(C)C)c(Oc2cnc(N)nc2N)cc1-c1ccc2c(c1)OCO2	62.3	0.25 (≈ 0.634 µM)	34.8	32 (≈ 81.1 µM)	0.5 (≈ 1.27 µM)	16 (≈ 40.6 µM)	2 (≈ 5.07 µM)	26.8	> 100
COc1ccc(Oc2cnc(N)nc2N)cc1-c1ccc(C(F)(F)F)cc1	68.3	0.016 (≈ 0.0425 µM)	8.29	4 (≈ 10.6 µM)	0.031 (≈ 0.0824 µM)	4 (≈ 10.6 µM)	4 (≈ 10.6 µM)	42.3	> 100
COc1cc(C(C)C)c(Oc2cnc(N)nc2N)cc1-c1cc(Cl)cc(Cl)c1	66.2	0.125 (≈ 0.298 µM)	15.4	4 (≈ 9.54 µM)	0.125 (≈ 0.298 µM)	4 (≈ 9.54 µM)	1 (≈ 2.38 µM)	39.7	78.6
CCCOc1cc(C(C)C)c(Oc2cnc(N)nc2N)cc1I	66.7	0.016 (≈ 0.0374 µM)	45	> 32	0.016 (≈ 0.0374 µM)	> 32	0.5 (≈ 1.17 µM)	47.4	43.8
COc1cc(C(C)C)c(Oc2cnc(N)nc2N)cc1-c1ccc(C(F)(F)F)cc1	65	0.5 (≈ 1.19 µM)	60.2	16 (≈ 38.2 µM)	0.5 (≈ 1.19 µM)	16 (≈ 38.2 µM)	2 (≈ 4.78 µM)	27.4	68.1
COc1cc(C(C)C)c(Oc2cnc(N)nc2N)cc1-c1ccc(Cl)c(C(F)(F)F)c1	37.8	0.5 (≈ 1.1 µM)	142	4 (≈ 8.83 µM)	0.5 (≈ 1.1 µM)	4 (≈ 8.83 µM)	2 (≈ 4.42 µM)	41	67.4

Reference: ChEMBL document CHEMBL5528082 (J Med Chem, 2024)
